The kinase profiling compilation of Christmann-Franck et al. (2016)
“And” between values parts separate entries of the source, which are not always exact repeats. Equal values may be shown once.

Columns and labels:
Test in all cases: radiometric filter-binding kinase assay, Kinase HotSpot
Details in all cases: compound 0.5 µM; ATP 10 µM
SGK2 (human) = SGK2 (human) (UniProt Q9HBY8)
LTK (human) = LTK (human) (UniProt P29376)
ULK2 (human) = ULK2 (human) (UniProt Q8IYT8)
EPHA2 (human) = EPHA2 (human) (UniProt P29317)
ROCK2 (human) = ROCK2 (human) (UniProt O75116)
CSNK1D (human) = CSNK1D (human) (UniProt P48730)
SYK (human) = SYK (human) (UniProt P43405)
ROS1 (human) = ROS1 (human) (UniProt P08922)
MST1R (human) = MST1R (human) (UniProt Q04912)
MAPK14 (human) = MAPK14 (human) (UniProt Q16539)
PRKG2 (human) = PRKG2 (human) (UniProt Q13237)
DYRK4 (human) = DYRK4 (human) (UniProt Q9NR20)
CAMKK2 (human) = CAMKK2 (human) (UniProt Q96RR4)
RPS6KB1 (human) = RPS6KB1 (human) (UniProt P23443)
PDGFRB (human) = PDGFRB (human) (UniProt P09619)
PRKCH (human) = PRKCH (human) (UniProt P24723)
NEK11 (human) = NEK11 (human) (UniProt Q8NG66)
HIPK1 (human) = HIPK1 (human) (UniProt Q86Z02)
CAMK1G (human) = CAMK1G (human) (UniProt Q96NX5)
[1] = target: TYK2 JH1 catalytic (human) (UniProt P29597)
PIM3 (human) = PIM3 (human) (UniProt Q86V86)
TBK1 (human) = TBK1 (human) (UniProt Q9UHD2)
NEK1 (human) = NEK1 (human) (UniProt Q96PY6)
LIMK1 (human) = LIMK1 (human) (UniProt P53667)
GRK6 (human) = GRK6 (human) (UniProt P43250)
PLK1 (human) = PLK1 (human) (UniProt P53350)
PRKCA (human) = PRKCA (human) (UniProt P17252)
TGFBR1 (human) = TGFBR1 (human) (UniProt P36897)
SRMS (human) = SRMS (human) (UniProt Q9H3Y6)
NEK9 (human) = NEK9 (human) (UniProt Q8TD19)
PAK6 (human) = PAK6 (human) (UniProt Q9NQU5)
FGFR3 (human) = FGFR3 (human) (UniProt P22607)
CSNK2A1 (human) = CSNK2A1 (human) (UniProt P68400)
RPS6KA6 KD1 KD2 (human) = RPS6KA6 KD1 KD2 (human) (UniProt Q9UK32)
PAK3 (human) = PAK3 (human) (UniProt O75914)
TAOK3 (human) = TAOK3 (human) (UniProt Q9H2K8)
CAMK1D (human) = CAMK1D (human) (UniProt Q8IU85)
CAMKK1 (human) = CAMKK1 (human) (UniProt Q8N5S9)
MAPK11 (human) = MAPK11 (human) (UniProt Q15759)
CSNK1G2 (human) = CSNK1G2 (human) (UniProt P78368)
LYN (human) = LYN (human) (UniProt P07948)
SLK (human) = SLK (human) (UniProt Q9H2G2)

Sequence of CSNK2A1 (human) (P68400 whole entry, looked up): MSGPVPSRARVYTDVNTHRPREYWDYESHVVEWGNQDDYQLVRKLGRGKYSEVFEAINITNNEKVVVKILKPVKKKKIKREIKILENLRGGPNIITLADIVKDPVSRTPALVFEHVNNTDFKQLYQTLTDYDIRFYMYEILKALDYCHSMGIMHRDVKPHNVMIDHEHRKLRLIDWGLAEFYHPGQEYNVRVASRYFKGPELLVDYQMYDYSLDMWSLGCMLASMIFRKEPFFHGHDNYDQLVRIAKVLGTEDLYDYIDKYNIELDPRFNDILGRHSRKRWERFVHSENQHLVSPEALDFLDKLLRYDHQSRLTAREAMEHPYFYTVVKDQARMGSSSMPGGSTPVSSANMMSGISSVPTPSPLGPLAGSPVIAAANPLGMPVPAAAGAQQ
Sequence of TGFBR1 (human) (P36897 whole entry, looked up): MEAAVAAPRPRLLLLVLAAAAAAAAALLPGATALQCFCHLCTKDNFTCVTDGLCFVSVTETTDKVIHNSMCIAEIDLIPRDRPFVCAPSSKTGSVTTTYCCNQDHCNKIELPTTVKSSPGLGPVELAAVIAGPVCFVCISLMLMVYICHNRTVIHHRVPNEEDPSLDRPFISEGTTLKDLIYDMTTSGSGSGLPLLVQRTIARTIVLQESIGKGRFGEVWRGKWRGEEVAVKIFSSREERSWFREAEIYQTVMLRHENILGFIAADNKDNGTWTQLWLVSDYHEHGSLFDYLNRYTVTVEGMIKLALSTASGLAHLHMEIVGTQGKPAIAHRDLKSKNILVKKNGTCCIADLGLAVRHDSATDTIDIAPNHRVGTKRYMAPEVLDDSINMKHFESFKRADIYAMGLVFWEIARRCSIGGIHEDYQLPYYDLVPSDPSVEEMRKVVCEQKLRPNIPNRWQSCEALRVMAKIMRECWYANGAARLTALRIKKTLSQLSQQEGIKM
Sequence of TBK1 (human) (Q9UHD2 whole entry, looked up): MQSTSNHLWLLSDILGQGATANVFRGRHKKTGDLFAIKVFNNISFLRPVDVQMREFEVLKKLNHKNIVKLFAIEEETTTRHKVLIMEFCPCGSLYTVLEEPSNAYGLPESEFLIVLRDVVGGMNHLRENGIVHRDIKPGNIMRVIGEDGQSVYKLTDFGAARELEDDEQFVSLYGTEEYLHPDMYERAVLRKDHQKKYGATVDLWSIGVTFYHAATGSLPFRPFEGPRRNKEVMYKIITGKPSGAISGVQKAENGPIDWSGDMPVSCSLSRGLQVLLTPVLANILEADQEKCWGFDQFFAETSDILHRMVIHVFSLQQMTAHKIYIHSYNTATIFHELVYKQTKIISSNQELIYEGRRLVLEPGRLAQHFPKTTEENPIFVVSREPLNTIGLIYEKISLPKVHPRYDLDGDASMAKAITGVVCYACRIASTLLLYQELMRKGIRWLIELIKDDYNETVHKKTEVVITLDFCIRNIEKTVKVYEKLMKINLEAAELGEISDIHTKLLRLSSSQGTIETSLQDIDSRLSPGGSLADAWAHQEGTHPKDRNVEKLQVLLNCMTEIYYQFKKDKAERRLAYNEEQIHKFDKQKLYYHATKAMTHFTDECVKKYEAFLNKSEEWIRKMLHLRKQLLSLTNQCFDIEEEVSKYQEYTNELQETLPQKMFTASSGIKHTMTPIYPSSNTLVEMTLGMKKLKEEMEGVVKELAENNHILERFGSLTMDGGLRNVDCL
Sequence of CSNK1D (human) (P48730 whole entry, looked up): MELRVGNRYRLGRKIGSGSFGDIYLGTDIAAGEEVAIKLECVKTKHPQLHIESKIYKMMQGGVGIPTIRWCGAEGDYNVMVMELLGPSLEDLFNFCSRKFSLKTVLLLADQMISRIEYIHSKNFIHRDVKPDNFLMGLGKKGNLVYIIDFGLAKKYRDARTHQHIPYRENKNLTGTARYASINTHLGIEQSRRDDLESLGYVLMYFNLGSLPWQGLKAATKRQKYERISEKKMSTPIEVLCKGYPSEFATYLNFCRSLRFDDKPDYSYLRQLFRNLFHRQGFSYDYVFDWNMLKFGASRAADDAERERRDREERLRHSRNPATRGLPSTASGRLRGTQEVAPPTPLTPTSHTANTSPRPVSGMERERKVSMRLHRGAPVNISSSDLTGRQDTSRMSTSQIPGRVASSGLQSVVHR
Sequence of NEK11 (human) (Q8NG66 whole entry, looked up): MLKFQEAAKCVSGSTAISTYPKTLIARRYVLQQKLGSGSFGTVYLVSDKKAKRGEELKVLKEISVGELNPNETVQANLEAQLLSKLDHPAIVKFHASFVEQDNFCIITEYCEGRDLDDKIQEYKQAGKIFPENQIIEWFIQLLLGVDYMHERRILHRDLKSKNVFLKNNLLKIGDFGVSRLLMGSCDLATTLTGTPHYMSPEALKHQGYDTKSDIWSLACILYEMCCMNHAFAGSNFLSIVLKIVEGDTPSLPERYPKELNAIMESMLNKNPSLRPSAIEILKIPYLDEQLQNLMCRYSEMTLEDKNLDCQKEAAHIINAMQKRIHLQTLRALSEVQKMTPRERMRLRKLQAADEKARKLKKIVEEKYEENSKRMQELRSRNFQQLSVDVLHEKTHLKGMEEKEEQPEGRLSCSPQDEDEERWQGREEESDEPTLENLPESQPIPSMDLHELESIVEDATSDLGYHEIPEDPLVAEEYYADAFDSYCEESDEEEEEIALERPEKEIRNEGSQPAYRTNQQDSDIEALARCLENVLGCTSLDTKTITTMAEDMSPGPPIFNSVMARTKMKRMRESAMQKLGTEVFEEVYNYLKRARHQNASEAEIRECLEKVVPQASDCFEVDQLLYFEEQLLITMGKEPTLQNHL
Sequence of LTK (human) (P29376 whole entry, looked up): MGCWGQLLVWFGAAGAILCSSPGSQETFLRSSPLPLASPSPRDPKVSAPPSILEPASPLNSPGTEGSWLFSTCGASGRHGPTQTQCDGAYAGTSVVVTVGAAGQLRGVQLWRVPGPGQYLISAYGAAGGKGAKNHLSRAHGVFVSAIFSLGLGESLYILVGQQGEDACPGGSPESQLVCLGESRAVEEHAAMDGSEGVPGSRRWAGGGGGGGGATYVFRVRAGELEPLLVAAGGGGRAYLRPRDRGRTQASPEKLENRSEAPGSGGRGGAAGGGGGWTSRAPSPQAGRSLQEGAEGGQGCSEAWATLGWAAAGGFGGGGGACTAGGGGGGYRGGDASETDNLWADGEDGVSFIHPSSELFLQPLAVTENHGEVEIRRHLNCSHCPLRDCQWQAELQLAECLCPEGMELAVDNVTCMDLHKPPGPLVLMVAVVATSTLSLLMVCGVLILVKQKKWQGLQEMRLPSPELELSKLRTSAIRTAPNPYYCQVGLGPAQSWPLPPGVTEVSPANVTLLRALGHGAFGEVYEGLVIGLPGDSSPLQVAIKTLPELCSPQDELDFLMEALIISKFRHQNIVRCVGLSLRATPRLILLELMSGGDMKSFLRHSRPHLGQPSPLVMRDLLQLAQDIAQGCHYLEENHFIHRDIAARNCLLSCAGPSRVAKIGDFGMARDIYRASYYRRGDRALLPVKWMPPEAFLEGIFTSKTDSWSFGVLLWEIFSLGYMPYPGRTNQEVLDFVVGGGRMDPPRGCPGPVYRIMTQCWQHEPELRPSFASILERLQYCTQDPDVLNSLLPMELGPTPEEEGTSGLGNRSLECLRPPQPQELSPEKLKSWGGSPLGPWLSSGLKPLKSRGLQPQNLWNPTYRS
Sequence of DYRK4 (human) (Q9NR20 whole entry, looked up): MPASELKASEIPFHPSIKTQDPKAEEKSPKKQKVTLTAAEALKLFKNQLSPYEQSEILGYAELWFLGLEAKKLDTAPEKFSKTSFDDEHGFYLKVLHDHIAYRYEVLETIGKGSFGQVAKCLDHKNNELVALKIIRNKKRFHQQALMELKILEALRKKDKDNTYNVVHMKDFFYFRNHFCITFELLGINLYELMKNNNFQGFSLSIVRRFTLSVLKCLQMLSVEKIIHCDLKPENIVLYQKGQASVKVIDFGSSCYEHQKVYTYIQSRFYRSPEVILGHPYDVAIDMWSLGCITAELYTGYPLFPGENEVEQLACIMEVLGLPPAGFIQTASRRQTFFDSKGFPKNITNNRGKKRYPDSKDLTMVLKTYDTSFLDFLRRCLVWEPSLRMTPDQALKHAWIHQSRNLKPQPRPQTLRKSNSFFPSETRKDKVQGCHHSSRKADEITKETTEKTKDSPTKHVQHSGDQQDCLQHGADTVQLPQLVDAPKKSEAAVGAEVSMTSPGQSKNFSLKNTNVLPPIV
Sequence of CAMK1G (human) (Q96NX5 whole entry, looked up): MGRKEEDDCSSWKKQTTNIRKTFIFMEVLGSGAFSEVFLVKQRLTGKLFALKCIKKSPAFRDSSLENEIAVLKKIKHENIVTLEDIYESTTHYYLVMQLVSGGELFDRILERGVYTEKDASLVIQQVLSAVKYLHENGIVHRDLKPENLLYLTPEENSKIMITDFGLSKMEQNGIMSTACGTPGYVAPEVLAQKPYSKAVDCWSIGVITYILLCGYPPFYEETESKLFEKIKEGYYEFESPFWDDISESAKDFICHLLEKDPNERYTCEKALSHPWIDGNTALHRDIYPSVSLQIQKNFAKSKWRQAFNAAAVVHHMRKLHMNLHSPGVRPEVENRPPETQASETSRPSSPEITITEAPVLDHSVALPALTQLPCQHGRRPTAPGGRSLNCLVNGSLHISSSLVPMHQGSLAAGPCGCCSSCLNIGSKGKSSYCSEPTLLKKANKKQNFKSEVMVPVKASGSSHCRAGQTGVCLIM
Sequence of CSNK1G2 (human) (P78368 whole entry, looked up): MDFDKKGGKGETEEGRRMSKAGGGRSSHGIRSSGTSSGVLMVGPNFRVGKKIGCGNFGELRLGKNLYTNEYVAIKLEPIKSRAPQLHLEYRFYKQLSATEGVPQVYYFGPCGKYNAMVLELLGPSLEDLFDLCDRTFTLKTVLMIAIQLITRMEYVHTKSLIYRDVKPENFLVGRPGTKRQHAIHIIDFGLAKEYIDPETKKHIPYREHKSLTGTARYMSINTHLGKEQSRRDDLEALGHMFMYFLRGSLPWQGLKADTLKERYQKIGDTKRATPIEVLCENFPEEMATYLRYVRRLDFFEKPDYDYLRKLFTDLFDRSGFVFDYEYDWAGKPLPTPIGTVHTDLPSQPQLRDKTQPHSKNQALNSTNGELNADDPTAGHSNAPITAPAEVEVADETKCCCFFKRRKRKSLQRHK

Cc1ccc(S(=O)(=O)/C=C/C#N)cc1
residual activity (SGK2 (human)): 112% | residual activity (LTK (human)): 114% | residual activity (ULK2 (human)): 110% | residual activity (EPHA2 (human)): 105% | residual activity (ROCK2 (human)): 99.1% | residual activity (CSNK1D (human)): 103% | residual activity (SYK (human)): 105% | residual activity (ROS1 (human)): 94.1% | residual activity (MST1R (human)): 113% | residual activity (MAPK14 (human)): 97.4% | residual activity (PRKG2 (human)): 102% | residual activity (DYRK4 (human)): 95.1% | residual activity (CAMKK2 (human)): 102% | residual activity (RPS6KB1 (human)): 105% | residual activity (PDGFRB (human)): 103% | residual activity (PRKCH (human)): 106% | residual activity (NEK11 (human)): 95.8% | residual activity (HIPK1 (human)): 105% | residual activity (CAMK1G (human)): 99.9% | residual activity [1]: 82.8% | residual activity (PIM3 (human)): 93.6% | residual activity (TBK1 (human)): 83.9% | residual activity (NEK1 (human)): 92.3% | residual activity (LIMK1 (human)): 97.1% | residual activity (GRK6 (human)): 112% | residual activity (PLK1 (human)): 110% | residual activity (PRKCA (human)): 70.6% | residual activity (TGFBR1 (human)): 103% | residual activity (SRMS (human)): 98.8% | residual activity (NEK9 (human)): 95.6% | residual activity (PAK6 (human)): 107% | residual activity (FGFR3 (human)): 95.2% | residual activity (CSNK2A1 (human)): 94.3% | residual activity (RPS6KA6 KD1 KD2 (human)): 95.4% | residual activity (PAK3 (human)): 105% | residual activity (TAOK3 (human)): 101% | residual activity (CAMK1D (human)): 108% | residual activity (CAMKK1 (human)): 114% | residual activity (MAPK11 (human)): 102% | residual activity (CSNK1G2 (human)): 98.6% | residual activity (LYN (human)): 101% and 108% | residual activity (SLK (human)): 101%

COc1ccc2c(c[n+](C)c3c4cc5c(cc4ccc23)OCO5)c1OC
residual activity (SGK2 (human)): 99.1% | residual activity (LTK (human)): 95.9% | residual activity (ULK2 (human)): 92% | residual activity (EPHA2 (human)): 97.4% | residual activity (ROCK2 (human)): 92.5% | residual activity (CSNK1D (human)): 92.9% | residual activity (SYK (human)): 98.8% | residual activity (ROS1 (human)): 119% | residual activity (MST1R (human)): 97.8% | residual activity (MAPK14 (human)): 94.1% | residual activity (PRKG2 (human)): 68.7% | residual activity (DYRK4 (human)): 95.1% | residual activity (CAMKK2 (human)): 98.2% | residual activity (RPS6KB1 (human)): 99.8% | residual activity (PDGFRB (human)): 93.5% | residual activity (PRKCH (human)): 101% | residual activity (NEK11 (human)): 106% | residual activity (HIPK1 (human)): 100% | residual activity (CAMK1G (human)): 100% | residual activity [1]: 108% | residual activity (PIM3 (human)): 99.6% | residual activity (TBK1 (human)): 96.2% | residual activity (NEK1 (human)): 91.3% | residual activity (LIMK1 (human)): 109% | residual activity (GRK6 (human)): 104% | residual activity (PLK1 (human)): 93.6% | residual activity (PRKCA (human)): 78.9% | residual activity (TGFBR1 (human)): 98.5% | residual activity (SRMS (human)): 86% | residual activity (NEK9 (human)): 97% | residual activity (PAK6 (human)): 96.1% | residual activity (FGFR3 (human)): 99.1% | residual activity (CSNK2A1 (human)): 83.3% | residual activity (RPS6KA6 KD1 KD2 (human)): 91.1% | residual activity (PAK3 (human)): 96.6% | residual activity (TAOK3 (human)): 96.1% | residual activity (CAMK1D (human)): 105% | residual activity (CAMKK1 (human)): 101% | residual activity (MAPK11 (human)): 91.6% | residual activity (CSNK1G2 (human)): 96.8% | residual activity (LYN (human)): 95.4% and 100% | residual activity (SLK (human)): 87.4%

CCCC(=O)Oc1ccc2[nH]c(C(=O)c3cc4ccccc4[nH]3)cc2c1
residual activity (SGK2 (human)): 99.4% | residual activity (LTK (human)): 87.5% | residual activity (ULK2 (human)): 98.3% | residual activity (EPHA2 (human)): 99% | residual activity (ROCK2 (human)): 103% | residual activity (CSNK1D (human)): 96.4% | residual activity (SYK (human)): 93.9% | residual activity (ROS1 (human)): 97% | residual activity (MST1R (human)): 103% | residual activity (MAPK14 (human)): 102% | residual activity (PRKG2 (human)): 97.6% | residual activity (DYRK4 (human)): 86% | residual activity (CAMKK2 (human)): 84.6% | residual activity (RPS6KB1 (human)): 94.5% | residual activity (PDGFRB (human)): 91.2% | residual activity (PRKCH (human)): 93.6% | residual activity (NEK11 (human)): 101% | residual activity (HIPK1 (human)): 101% | residual activity (CAMK1G (human)): 100% | residual activity [1]: 90.7% | residual activity (PIM3 (human)): 84.5% | residual activity (TBK1 (human)): 119% | residual activity (NEK1 (human)): 94.3% | residual activity (LIMK1 (human)): 93.9% | residual activity (GRK6 (human)): 95.8% | residual activity (PLK1 (human)): 101% | residual activity (PRKCA (human)): 102% | residual activity (TGFBR1 (human)): 101% | residual activity (SRMS (human)): 104% | residual activity (NEK9 (human)): 110% | residual activity (PAK6 (human)): 94.5% | residual activity (FGFR3 (human)): 95.2% | residual activity (CSNK2A1 (human)): 99.8% | residual activity (RPS6KA6 KD1 KD2 (human)): 95.4% | residual activity (PAK3 (human)): 102% | residual activity (TAOK3 (human)): 86.7% | residual activity (CAMK1D (human)): 103% | residual activity (CAMKK1 (human)): 106% | residual activity (MAPK11 (human)): 87.7% | residual activity (CSNK1G2 (human)): 95.5% | residual activity (LYN (human)): 103% and 98.7% | residual activity (SLK (human)): 98.9%

Cc1ccc(NC2=CC(=O)c3sc(C)nc3C2=O)cc1
residual activity (SGK2 (human)): 94.6% | residual activity (LTK (human)): 88.8% | residual activity (ULK2 (human)): 96.9% | residual activity (EPHA2 (human)): 102% | residual activity (ROCK2 (human)): 85.1% | residual activity (CSNK1D (human)): 101% | residual activity (SYK (human)): 97.9% | residual activity (ROS1 (human)): 107% | residual activity (MST1R (human)): 88.9% | residual activity (MAPK14 (human)): 92.4% | residual activity (PRKG2 (human)): 60.8% | residual activity (DYRK4 (human)): 97.9% | residual activity (CAMKK2 (human)): 92.5% | residual activity (RPS6KB1 (human)): 97.2% | residual activity (PDGFRB (human)): 94.5% | residual activity (PRKCH (human)): 89.4% | residual activity (NEK11 (human)): 98.3% | residual activity (HIPK1 (human)): 96.7% | residual activity (CAMK1G (human)): 95% | residual activity [1]: 109% | residual activity (PIM3 (human)): 108% | residual activity (TBK1 (human)): 94% | residual activity (NEK1 (human)): 76.5% | residual activity (LIMK1 (human)): 104% | residual activity (GRK6 (human)): 96.8% | residual activity (PLK1 (human)): 86.8% | residual activity (PRKCA (human)): 100% | residual activity (TGFBR1 (human)): 94.8% | residual activity (SRMS (human)): 82.4% | residual activity (NEK9 (human)): 99.4% | residual activity (PAK6 (human)): 110% | residual activity (FGFR3 (human)): 86% | residual activity (CSNK2A1 (human)): 98.2% | residual activity (RPS6KA6 KD1 KD2 (human)): 73.4% | residual activity (PAK3 (human)): 97.5% | residual activity (TAOK3 (human)): 98.9% | residual activity (CAMK1D (human)): 100% | residual activity (CAMKK1 (human)): 108% | residual activity (MAPK11 (human)): 102% | residual activity (CSNK1G2 (human)): 99.9% | residual activity (LYN (human)): 106% and 95.4% | residual activity (SLK (human)): 80.6%
